From patent US20120277265A1, “NOVEL POLYQUINOLINE DERIVATIVES AND THE THERAPEUTIC USE THEREOF” (CENTRE NATIONAL DE LA RECHERCHE SCIENTIFIQUE (C.N.R.S.), priority 2005, published 2012)

How the values were obtained:
[1] = Number of ZnCl2 equivalents for the ligand to be entirely in the form of Zn(II) complex; assay type: binding; settings: competition with the tris buffer and the DMSO
[2] = system: TA98 and TA100 Salmonella strains; assay: AMES test, statements on both lines; settings: adapted Ames test, TA98 and/or TA100, absence or presence of S9
From the text: AMES test: The method is adapted from D. M. Maron and B. N. Ames, Mutat.
The test involves evaluating the potential of the tested molecules to induce mutation which is reverse to the histidine locus of these lines. These two lines were provided by Dr. Bruce N. Ames (University of California, Berkeley, USA). They are resistant to Ampicillin and sensitive to Tetracycline. They are not mutant toward rfa, UvγV and UvγA. The line TA98 (his D3052) contains a mutation of reading phase (GC) whereas the line TA100 (his G46) contains a substitution of base pair (GC).
The compounds to be tested were dissolved in 100% of DMSO (the solvent) and diluted logarithmically (by a factor of 10) so as to obtain 4 test concentrations of 30,000; 3,000; 300 and 30 μg/ml. Each series of 0.1 ml of stock solution to be tested, 0.1 ml of test line and of culture medium with or without 0.5 ml of enzymatic homogenate (S9) of rat liver microsome were mixed with 2 ml of molten agarose (containing 0.5 mM of histidine and 0.5 mM of biotin). This mixture was placed on the surface of a plate of minimal agarose glucose medium (30 ml for each Petri dish) so as to obtain final concentrations of compound to be tested of 3,000; 300; 30 and 3 μγ/plate. The plates were then incubated at 37° C. for 48 hours. […] The revertant colonies of the test lines were counted using a colony counter (Sigma). […]

With `c1cnc2c(Nc3cccc4cccnc34)cccc2c1` [Compound 12, Bis(8-quinoline)amine] the “number of ZnCl2 equivalent for 15 μM of ligand to be entirely in the form of Zn(II) complex” value [1] was 100 eq ZnCl2.
With `CC(C)(c1ccc2cccc(O)c2n1)c1ccc2cccc(O)c2n1` [Compound 3, 2,2′-(2,2-propanediyl)-bis(8-hydroxyquinoline)] the “mutagenic or bactericidal effect” value [2] was “no mutagenic or bactericidal effect”.
